Laboratory results published in PubChem BioAssay (NCI).
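These data come from cells grown in 96-well plates and exposed to compound for 48 hours at five concentrations. TGI: total growth inhibition.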

Experiments:
Assay in all cases: NCI tumour cell line growth inhibition, 48 h
786-0 renal = test system: 786-0 renal
A498 renal = test system: A498 renal
A549 NSCLC = test system: A549 NSCLC
ACHN renal = test system: ACHN renal
CAKI-1 renal = test system: CAKI-1 renal
CCRF-CEM leukemia = test system: CCRF-CEM leukemia
COLO 205 colon = test system: COLO 205 colon
DLD-1 colon = test system: DLD-1 colon
DMS 114 small cell lung = test system: DMS 114 small cell lung
DMS 273 small cell lung = test system: DMS 273 small cell lung
EKVX NSCLC = test system: EKVX NSCLC
HCC-2998 colon = test system: HCC-2998 colon
HCT-116 colon = test system: HCT-116 colon
HCT-15 colon = test system: HCT-15 colon
HL-60(TB) leukemia = test system: HL-60(TB) leukemia
HOP-18 NSCLC = test system: HOP-18 NSCLC
HOP-62 NSCLC = test system: HOP-62 NSCLC
HT29 colon = test system: HT29 colon
IGROV1 ovarian = test system: IGROV1 ovarian
K-562 leukemia = test system: K-562 leukemia
KM12 colon = test system: KM12 colon
KM20L2 colon = test system: KM20L2 colon
LXFL 529 NSCLC = test system: LXFL 529 NSCLC
M14 melanoma = test system: M14 melanoma
M19-MEL melanoma = test system: M19-MEL melanoma
MALME-3M melanoma = test system: MALME-3M melanoma
MOLT-4 leukemia = test system: MOLT-4 leukemia
NCI-H23 lung = test system: NCI-H23 lung
NCI-H460 lung = test system: NCI-H460 lung
NCI-H522 lung = test system: NCI-H522 lung
OVCAR-3 ovarian = test system: OVCAR-3 ovarian
OVCAR-4 ovarian = test system: OVCAR-4 ovarian
OVCAR-8 ovarian = test system: OVCAR-8 ovarian
RPMI-8226 leukemia = test system: RPMI-8226 leukemia
RXF 393 renal = test system: RXF 393 renal
RXF-631 renal = test system: RXF-631 renal
SF-268 CNS = test system: SF-268 CNS
SF-295 CNS = test system: SF-295 CNS
SF-539 CNS = test system: SF-539 CNS
SK-MEL-2 melanoma = test system: SK-MEL-2 melanoma
SK-MEL-28 melanoma = test system: SK-MEL-28 melanoma
SK-MEL-5 melanoma = test system: SK-MEL-5 melanoma
SK-OV-3 ovarian = test system: SK-OV-3 ovarian
SN12C renal = test system: SN12C renal
SNB-19 CNS = test system: SNB-19 CNS
SNB-75 CNS = test system: SNB-75 CNS
SNB-78 CNS = test system: SNB-78 CNS
SW-620 colon = test system: SW-620 colon
TK-10 renal = test system: TK-10 renal
U251 CNS = test system: U251 CNS
UACC-257 melanoma = test system: UACC-257 melanoma
UACC-62 melanoma = test system: UACC-62 melanoma
UO-31 renal = test system: UO-31 renal
XF 498 CNS = test system: XF 498 CNS
LOX IMVI melanoma = test system: LOX IMVI melanoma
NCI-H226 lung = test system: NCI-H226 lung
OVCAR-5 ovarian = test system: OVCAR-5 ovarian
SR leukemia = test system: SR leukemia

N#Cc1cc(NC(=O)c2ccccc2)c(=O)n2c1[nH]c1ccccc12
TGI (786-0 renal): > 100 µM | TGI (A498 renal): 85.8 µM | TGI (A549 NSCLC): > 100 µM | TGI (ACHN renal): > 100 µM | TGI (CAKI-1 renal): > 100 µM | TGI (CCRF-CEM leukemia): > 100 µM | TGI (COLO 205 colon): > 100 µM | TGI (DLD-1 colon): > 100 µM | TGI (DMS 114 small cell lung): 95.5 µM | TGI (DMS 273 small cell lung): > 100 µM | TGI (EKVX NSCLC): > 100 µM | TGI (HCC-2998 colon): > 100 µM | TGI (HCT-116 colon): > 100 µM | TGI (HCT-15 colon): > 100 µM | TGI (HL-60(TB) leukemia): 74.6 µM | TGI (HOP-18 NSCLC): > 100 µM | TGI (HOP-62 NSCLC): 88.1 µM | TGI (HT29 colon): > 100 µM | TGI (IGROV1 ovarian): > 100 µM | TGI (K-562 leukemia): > 100 µM | TGI (KM12 colon): > 100 µM | TGI (KM20L2 colon): > 100 µM | TGI (LXFL 529 NSCLC): > 100 µM | TGI (M14 melanoma): 76.9 µM | TGI (M19-MEL melanoma): > 100 µM | TGI (MALME-3M melanoma): 83 µM | TGI (MOLT-4 leukemia): > 100 µM | TGI (NCI-H23 lung): 57.7 µM | TGI (NCI-H460 lung): > 100 µM | TGI (NCI-H522 lung): 42 µM | TGI (OVCAR-3 ovarian): 80.7 µM | TGI (OVCAR-4 ovarian): > 100 µM | TGI (OVCAR-8 ovarian): > 100 µM | TGI (RPMI-8226 leukemia): 38.3 µM | TGI (RXF 393 renal): 50.7 µM | TGI (RXF-631 renal): > 100 µM | TGI (SF-268 CNS): > 100 µM | TGI (SF-295 CNS): > 100 µM | TGI (SF-539 CNS): 84.4 µM | TGI (SK-MEL-2 melanoma): 89.8 µM | TGI (SK-MEL-28 melanoma): 67.7 µM | TGI (SK-MEL-5 melanoma): 34.2 µM | TGI (SK-OV-3 ovarian): 90.4 µM | TGI (SN12C renal): > 100 µM | TGI (SNB-19 CNS): 74.7 µM | TGI (SNB-75 CNS): 68.3 µM | TGI (SNB-78 CNS): > 100 µM | TGI (SW-620 colon): > 100 µM | TGI (TK-10 renal): 89.2 µM | TGI (U251 CNS): > 100 µM | TGI (UACC-257 melanoma): > 100 µM | TGI (UACC-62 melanoma): > 100 µM | TGI (UO-31 renal): 42.9 µM | TGI (XF 498 CNS): > 100 µM

CCCCCCCCCCCCCCCC(=O)OC1C(O)C(CO)OC(OC)C1NC(=O)N(CCCl)N=O (stereo not drawn)
TGI (A549 NSCLC): 23.8 µM | TGI (ACHN renal): 21.9 µM | TGI (CAKI-1 renal): > 100 µM | TGI (COLO 205 colon): 40.4 µM | TGI (DLD-1 colon): 31.5 µM | TGI (DMS 114 small cell lung): 28 µM | TGI (DMS 273 small cell lung): 29.4 µM | TGI (EKVX NSCLC): 34.7 µM | TGI (HCT-116 colon): 30 µM | TGI (HCT-15 colon): 54.8 µM | TGI (HOP-18 NSCLC): 31.3 µM | TGI (HOP-62 NSCLC): 32.3 µM | TGI (HT29 colon): 26.8 µM | TGI (IGROV1 ovarian): 38.3 µM | TGI (K-562 leukemia): 66.1 µM | TGI (KM12 colon): 35.1 µM | TGI (KM20L2 colon): 32.4 µM | TGI (LOX IMVI melanoma): 23.9 µM | TGI (LXFL 529 NSCLC): 25.1 µM | TGI (M14 melanoma): 36.8 µM | TGI (M19-MEL melanoma): 32.3 µM | TGI (MOLT-4 leukemia): 23 µM | TGI (NCI-H226 lung): 33.7 µM | TGI (NCI-H23 lung): 21 µM | TGI (NCI-H460 lung): 17.6 µM | TGI (NCI-H522 lung): 23.8 µM | TGI (OVCAR-3 ovarian): 33.4 µM | TGI (OVCAR-4 ovarian): 36.3 µM | TGI (OVCAR-5 ovarian): 30.4 µM | TGI (OVCAR-8 ovarian): 38.1 µM | TGI (RPMI-8226 leukemia): > 100 µM | TGI (RXF-631 renal): 32 µM | TGI (SF-268 CNS): 15.5 µM | TGI (SF-295 CNS): 24 µM | TGI (SF-539 CNS): 6.16 µM | TGI (SK-MEL-2 melanoma): 44.3 µM | TGI (SK-MEL-28 melanoma): 27.5 µM | TGI (SK-MEL-5 melanoma): 30.2 µM | TGI (SNB-19 CNS): 23.8 µM | TGI (SNB-75 CNS): 24.6 µM | TGI (SNB-78 CNS): 40.2 µM | TGI (SR leukemia): 23.7 µM | TGI (SW-620 colon): 26.1 µM | TGI (TK-10 renal): 28.9 µM | TGI (U251 CNS): 19.9 µM | TGI (UACC-257 melanoma): 31.5 µM | TGI (UACC-62 melanoma): 17.1 µM | TGI (UO-31 renal): 28.5 µM | TGI (XF 498 CNS): 30.8 µM
